In patent US20220396565A1 (Hoffmann-La Roche Inc., priority 2020, published 2022) one finds IC90 data, which are given here for 23 compounds.

Structures can show the parent of a compound that is named as a salt. Where two headings read alike, the source gives them in different places.

The IC90 is the concentration needed for an effect of 90%.

The assay concerns Acinetobacter baumannii ATCC17961. As to the kind of experiment: Antimicrobial susceptibility testing: 90% growth inhibitory concentration (IC90) determination, Iso-Sensitest broth. Format: cell-based. Particulars: Acinetobacter baumannii. The method, boiled down: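 Growth at OD600 was monitored every 20 min for 16 h at 35±2 °C, with bacteria inoculated at ~5×10^(5) CFU/ml into Iso-Sensitest medium. Compounds were tested as 10-point twofold dilutions (e.g. 10–0.02 μM final). The 90% inhibitory concentration comes from the log-phase growth.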

Where [1] appears, read: ATCC17961, 90% growth inhibitory concentration, Acinetobacter baumannii ATCC17961, Iso-Sensitest broth, read-out: ATCC 17961 IC90.

On to `COc1ccc(-c2cnc(C(=O)Nc3ccc(C(=O)N4CCN(C(=O)C5CCNCC5)CC4)c(Cl)c3)n2C)c(F)c1OC` [Example 257, N-[3-chloro-4-[4-(piperidine-4-carbonyl)piperazine-1-carbonyl]phenyl]-5-(2-fluoro-3,4-dimethoxy-phenyl)-1-methyl-imidazole-2-carboxamide formate], for which the IC90 under setting [1] stood at 230 nM.
On to `COc1c(F)cc(-c2cnc(C(=O)Nc3ccc(C(=O)N4CCN(C(=O)C5CCNCC5)CC4)c(Cl)c3)n2C)c(F)c1F` [Example 168, N-[3-chloro-4-[4-(piperidine-4-carbonyl)piperazine-1-carbonyl]phenyl]-1-methyl-5-(2,3,5-trifluoro-4-methoxy-phenyl)imidazole-2-carboxamide formate], for which, under setting [1], the IC90 was 150 nM.
Take `Cn1c(-c2ccc(OC(F)F)cc2F)cnc1C(=O)Nc1ccc(C(=O)N2CCN(C(=O)C3CCNCC3)CC2)c(Cl)c1` [Example 180, N-[3-chloro-4-[4-(piperidine-4-carbonyl)piperazine-1-carbonyl]phenyl]-5-[4-(difluoromethoxy)-2-fluoro-phenyl]-1-methyl-imidazole-2-carboxamide formate]: the IC90 under setting [1] worked out at 60 nM.
Same read-out and setting: the same measure for `Cn1c(-c2ccc(OCC#N)c(F)c2Cl)cnc1C(=O)Nc1ccc(C(=O)N2CCN(C(=O)C3CCNCC3)CC2)c(Cl)c1` [Example 252, 5-[2-chloro-4-(cyanomethoxy)-3-fluoro-phenyl]-N-[3-chloro-4-[4-(piperidine-4-carbonyl)piperazine-1-carbonyl]phenyl]-1-methyl-imidazole-2-carboxamide formate]: 60 nM.
Regarding `Cn1c(-c2ccc(OCC#N)c(F)c2F)cnc1C(=O)Nc1ccc(C(=O)N2CCC(C(=O)N3CC4(CNC4)C3)CC2)c(Cl)c1` [Example 85, N-(4-(4-(2,6-diazaspiro[3.3]heptane-2-carbonyl)piperidine-1-carbonyl)-3-chlorophenyl)-5-(4-(cyanomethoxy)-2,3-difluorophenyl)-1-methyl-1H-imidazole-2-carboxamide 2,2,2-trifluoroacetate], the IC90 under setting [1] amounted to 150 nM.
As for `COc1ccc(-c2cnc(C(=O)Nc3ccc(C(=O)N4CCN(C(=O)CCCNC(=N)N)CC4)c(Cl)c3)n2C)c(F)c1F` [Example 135, N-[3-chloro-4-[4-(4-guanidinobutanoyl)piperazine-1-carbonyl]phenyl]-5-(2,3-difluoro-4-methoxy-phenyl)-1-methyl-imidazole-2-carboxamide formate], the IC90 under setting [1] came to 30 nM.
For `Cn1c(-c2ccc(OCC#N)c(F)c2F)cnc1C(=O)Nc1ccc(C(=O)N2CCN(C(=O)C3CNCC(O)C3)CC2)c(Cl)c1` (centres unmarked) [Example 214, N-(3-chloro-4-(4-(5-hydroxypiperidine-3-carbonyl)piperazine-1-carbonyl)phenyl)-5-(4-(cyanomethoxy)-2,3-difluorophenyl)-1-methyl-1H-imidazole-2-carboxamide 2,2,2-trifluoroacetate], the IC90 under setting [1] turned out to be 70 nM.
Same read-out and setting: the figure for `Cn1c(-c2ccc(OCF)c(F)c2F)cnc1C(=O)Nc1ccc(C(=O)N2CCN(C(=O)C3[C@H]4CNC[C@@H]34)CC2)c(Cl)c1` (stereo partly drawn) [Example 136, N-[4-[4-[(1R,5S)-3-azabicyclo[3.1.0]hexane-6-carbonyl]piperazine-1-carbonyl]-3-chloro-phenyl]-5-[2,3-difluoro-4-(fluoromethoxy)phenyl]-1-methyl-imidazole-2-carboxamide formate] is 30 nM; for `CN(C)CC(=O)N1CCN(C(=O)c2ccc(NC(=O)c3ncc(-c4ccc(OC(F)F)c(F)c4)n3C)cc2Cl)CC1` [Example 176, N-[3-chloro-4-[4-[2-(dimethylamino)acetyl]piperazine-1-carbonyl]phenyl]-5-[4-(difluoromethoxy)-3-fluoro-phenyl]-1-methyl-imidazole-2-carboxamide formate] it is 80 nM.
As for `CCOc1ccc(-c2cnc(C(=O)Nc3ccc(C(=O)N4CCN(C(=O)C5(O)CCNCC5)CC4)c(Cl)c3)n2C)c(F)c1F` [Example 170, N-[3-chloro-4-[4-(4-hydroxypiperidine-4-carbonyl)piperazine-1-carbonyl]phenyl]-5-(4-ethoxy-2,3-difluoro-phenyl)-1-methyl-imidazole-2-carboxamide formate], under setting [1], the IC90 amounted to 60 nM.
Same read-out and setting: the same measure for `Cn1c(-c2ccc(OCF)c(F)c2Cl)cnc1C(=O)Nc1ccc(C(=O)N2CCC(C(=O)N[C@@H]3CNC[C@H]3O)CC2)c(Cl)c1` [Example 53, 1-[2-chloro-4-[[5-[2-chloro-3-fluoro-4-(fluoromethoxy)phenyl]-1-methyl-imidazole-2-carbonyl]amino]benzoyl]-N-[(3R,4R)-4-hydroxypyrrolidin-3-yl]piperidine-4-carboxamide formate]: 50 nM; for `CN(C)CC(=O)N1CCN(C(=O)c2ccc(NC(=O)c3ncc(-c4ccc(OCF)cc4F)n3C)cc2Cl)CC1` [Example 222, N-(3-chloro-4-(4-(dimethylglycyl)piperazine-1-carbonyl)phenyl)-5-(2-fluoro-4-(fluoromethoxy)phenyl)-1-methyl-1H-imidazole-2-carboxamide]: 90 nM.
With `Cn1c(-c2ccc(OC(F)F)c(F)c2F)cnc1C(=O)Nc1ccc(C(=O)N2CCC(C(=O)N3CCC(C(N)=O)C3)CC2)c(Cl)c1` (centres unmarked) [Example 49, N-[4-[4-(3-carbamoylpyrrolidine-1-carbonyl)piperidine-1-carbonyl]-3-chloro-phenyl]-5-[4-(difluoromethoxy)-2,3-difluoro-phenyl]-1-methyl-imidazole-2-carboxamide trifluoroacetate], under setting [1], the IC90 was 150 nM.
On the same count and under the same terms, the figure for `COc1ccc(-c2cnc(C(=O)Nc3ccc(C(=O)N4CCC(C(=O)N[C@H]5[C@@H]6CNC[C@@H]65)CC4)c(Cl)c3)n2C)c(F)c1F` [Example 59, N-[(1S,5R)-3-azabicyclo[3.1.0]hexan-6-yl]-1-[2-chloro-4-[[5-(2,3-difluoro-4-methoxy-phenyl)-1-methyl-imidazole-2-carbonyl]amino]benzoyl] piperidine-4-carboxamide formate] is 50 nM; for `COc1ccc(-c2cnc(C(=O)Nc3ccc(C(=O)N4CCC(C(=O)NCc5ccncc5)CC4)c(Cl)c3)n2C)c(F)c1F` [Example 36, 1-[2-chloro-4-[[5-(2,3-difluoro-4-methoxy-phenyl)-1-methyl-imidazole-2-carbonyl]amino]benzoyl]-N-(4-pyridylmethyl)piperidine-4-carboxamide] it is 130 nM; for `COc1ccc(-c2cnc(C(=O)Nc3ccc(C(=O)N4CCN(C(=O)C5(O)CCNCC5)CC4)c(C)c3)n2C)c(Cl)c1F` [Example 118, 5-(2-chloro-3-fluoro-4-methoxy-phenyl)-N-[4-[4-(4-hydroxypiperidine-4-carbonyl)piperazine-1-carbonyl]-3-methyl-phenyl]-1-methyl-imidazole-2-carboxamide formate] it is 140 nM.
Regarding `Cn1c(-c2ccc(OCF)c(F)c2Cl)cnc1C(=O)Nc1ccc(C(=O)N2CCC(C(=O)N[C@H]3CCNC3)CC2)c(Cl)c1` [Example 65, 1-[2-chloro-4-[[5-[2-chloro-3-fluoro-4-(fluoromethoxy)phenyl]-1-methyl-imidazole-2-carbonyl]amino]benzoyl]-N-[(3S)-pyrrolidin-3-yl]piperidine-4-carboxamide formate], the IC90 under setting [1] amounted to 50 nM.
As to `COc1ccc(-c2cnc(C(=O)Nc3ccc(C(=O)N4CCN(C(=O)[C@H]5C[C@@H](N)C5)CC4)c(Cl)c3)n2C)c(F)c1F` [Example 140, N-[4-[4-(3-aminocyclobutanecarbonyl)piperazine-1-carbonyl]-3-chloro-phenyl]-5-(2,3-difluoro-4-methoxy-phenyl)-1-methyl-imidazole-2-carboxamide formate], the IC90 under setting [1] stood at 50 nM.
As for `COc1ccc(-c2cnc(C(=O)Nc3ccc(C(=O)N4CCN(C(=O)C[C@H]5CCCN5)CC4)c(Cl)c3)n2C)c(F)c1F` [Example 152, N-[3-chloro-4-[4-[2-[(2R)-pyrrolidin-2-yl]acetyl]piperazine-1-carbonyl]phenyl]-5-(2,3-difluoro-4-methoxy-phenyl)-1-methyl-imidazole-2-carboxamide formate], the IC90 under setting [1] is 50 nM.
Consider `Cn1c(-c2ccc(OC(F)F)c(F)c2F)cnc1C(=O)Nc1ccc(C(=O)N2CCC(C(=O)NCCN)CC2)c(Cl)c1` [Example 92, N-(2-aminoethyl)-1-(2-chloro-4-(5-(4-(difluoromethoxy)-2,3-difluorophenyl)-1-methyl-1H-imidazole-2-carboxamido)benzoyl) piperidine-4-carboxamide formate], for which the IC90 (ATCC17961, read-out: ATCC 17961 IC90) is 60 nM.
Turning to `COc1ccc(-c2cnc(C(=O)Nc3ccc(C(=O)N4CCC(C(=O)N[C@H]5CNC[C@@H]5O)CC4)c(Cl)c3)n2C)c(F)c1F` [Example 72, 1-[2-chloro-4-[[5-(2,3-difluoro-4-methoxy-phenyl)-1-methyl-imidazole-2-carbonyl]amino]benzoyl]-N-[(3S,4S)-4-hydroxypyrrolidin-3-yl]piperidine-4-carboxamide formate], the IC90 under setting [1] came to 50 nM.
As for `COc1ccc(-c2cnc(C(=O)Nc3ccc(C(=O)N4CCN(C(=O)C[C@@H]5CCNC5)CC4)c(Cl)c3)n2C)c(C#N)c1F` [Example 260, N-[3-chloro-4-[4-[2-[(3S)-pyrrolidin-3-yl]acetyl]piperazine-1-carbonyl]phenyl]-5-(2-cyano-3-fluoro-4-methoxy-phenyl)-1-methyl-imidazole-2-carboxamide formate], the IC90 under setting [1] amounted to 250 nM.
Still for that read-out and setting: the same measure for `COc1ccc(-c2cnc(C(=O)Nc3ccc(C(=O)N4CCC(C(=O)NCC5CNC5)CC4)c(Cl)c3)n2C)c(F)c1F` [Example 31, N-(azetidin-3-ylmethyl)-1-[2-chloro-4-[[5-(2,3-difluoro-4-methoxy-phenyl)-1-methyl-imidazole-2-carbonyl]amino]benzoyl] piperidine-4-carboxamide formate]: 70 nM.
